These results are taken from patent US10633383B2, “Compounds for the treatment, alleviation or prevention of disorders associated with Tau aggregates” (AC Immune SA, priority 2018, dated 2020).

Each structure is given as a SMILES string.

In this test the test system is human neuroblastoma cell line overexpressing the full-length form of human Tau carrying the P301L mutation. In words: Reduction of intracellular Tau aggregation (AlphaLISA). In kind it is cell-based. The note with it: compound at 5 μM, 24 h, aggregated Tau normalized to total Tau, relative to DMSO-treated cells. How it is done: Reduction of Intracellular Tau Aggregation
A human neuroblastoma cell line overexpressing the full-length form of human Tau carrying the P301L mutation was cultured in complete medium [DMEM-F12 4.5 g/L Glutamax (Invitrogen), 15% FBS (Biochrom), 1% Peni/Strep (Invitrogen) supplemented with 2.5 μg/ml of G418 (Sigma-Aldrich) selection antibiotic]. The day before the experiment 5×10^5 cells/well were plated in a 6 well plate in 3 mL of complete medium. The next day, cells were incubated with DMSO or a compound of the present invention at a 5 μM for additional 24 h at 37° C. After incubation, cells were trypsinized, resuspended in 100 μl of homogenization buffer [25 mM Tris-HCl pH 7.4, 150 mM NaCl, 1 mM EDTA, 1 mM EGTA containing phosphatase inhibitors (30 mM NaF, 0.2 mM Na3VO4, 1 nM Okadaic acid, 1 mM PMSF, 5 mM Na4P2O7) and protease inhibitor cocktail (Complete™, Roche)], and then physically lysed with three rapid cycles of freezing and thawing. Samples were then directly tested in the AlphaLISA assay. Phosphorylated, aggregated, and total Tau were quantified by AlphaLisa using the following antibody pairs: • HT7-Acceptor beads+biotin (BT)-Tau13-Donor beads: Total Tau • HT7-Acceptor beads+biotin (BT)-HT7-Donor beads: Aggregated human Tau
The Tau13 (Abcam) was biotinylated using EZ-Link® NHS-PEO Solid Phase biotinylation kit (Thermo Scientific), while the HT7-biotin was from a commercial source (Thermo Scientific).
For each antibody pairs the concentration of acceptor beads and biotinylated antibodies was optimized. All samples were first tested in a dilution series in PBS in order to identify the linear range and optimal dilution for each sample and assay. For the final protocol, the following reagents were added in a 384-well white OptiPlate (PerkinElmer): • 5 μL of test diluted sample • 20 μL of the mixture biotin-mAb acceptor beads at the following final concentrations: • HT7-BT at 1.25 nM in combination with HT7-Acc beads at 10 μg/ml • Tau13-BT at 5 nM in combination with HT7-Acc beads at 2.5 μg/ml
After incubation of this mixture at room temperature for 1 h, 25 μL of Streptavidin Donor beads (Perkin Elmer) at 25 μg/mL were added in the dark. Plates were analyzed after 30 min incubation using the EnSpire Alpha instrument and EnSpire Workstation version 3.00. Data for aggregated Tau were normalized to total Tau and then expressed as percentage of the DMSO-treated cells.

Consider `Fc1ccc2[nH]c3c(c2c1)CN(c1ccc2nc(N4CCOCC4)oc2c1)CC3` [Example 12], for which the inhibition at 5 µM lay within 25 to 50%.
